Results on five compounds are retold here after US20200230068A1, “COMPOSITIONS AND METHODS OF DELIVERY OF PHARMACOLOGICAL AGENTS” (NAL PHARMACEUTICAL GROUP LIMITED, priority 2017, published 2020).

The conditions of series [1]: cited from earlier work.
Series [2] in a line: CellTiter-Glo Luminescent Cell Viability Assay (cytotoxicity). The settings on record: Chinese hamster; for cytotoxicity at 20 minutes, 0.01 µM: Cytotoxicity %. As to the method: Conjugated Complex has been tested in CHO cells expressing human recombinant sst2a. Cell viability was measured using the CellTiter-Glo® Luminescent Cell Viability Assay (Promega) that determines the number of viable cells in culture, based on quantitation of the ATP present that is an indicator of metabolically active cells.
After dispensing test compounds to the wells, cells in the incubation buffer were added to the wells and incubated for 20 minutes. At the end of incubation, CellTiter-Glo was added to each well to measure luminescence.
On the technique in general: ATP-based viability assays read luminescence as a measure of living cells.

Series [3] is described as follows: Stability in rat plasma in vitro. The series is classed as in vitro ADME. As to the method: SST-Albumin fusion proteins may have a longer serum half-life and/or more stabilized activity in solution or in a pharmaceutical composition in vitro and/or in vivo compared to the corresponding unfused SST molecules. In rat plasma, for example, more than 90% of SST fusion protein was detected until 40 minutes of incubation, and more than 70% of SST fusion proteins remained up to at least 180 min. Under the same conditions, less than about 50% of free SST remained after 40 minute incubation, and no free SST was detected beyond 120 minutes. […] Thus, it would take about 72 hours for the concentration of SST fusion protein to reach zero concentration in plasma.
The stability of free SST and SST fusion protein was compared in in vitro rat plasma.

In series [4] the target is sst2a receptor expressed on CHO-K1 cells (UniProt P30874). The series is described as follows: cell-based or functional assay.
Chain of UniProt P30874 (P30874 whole entry): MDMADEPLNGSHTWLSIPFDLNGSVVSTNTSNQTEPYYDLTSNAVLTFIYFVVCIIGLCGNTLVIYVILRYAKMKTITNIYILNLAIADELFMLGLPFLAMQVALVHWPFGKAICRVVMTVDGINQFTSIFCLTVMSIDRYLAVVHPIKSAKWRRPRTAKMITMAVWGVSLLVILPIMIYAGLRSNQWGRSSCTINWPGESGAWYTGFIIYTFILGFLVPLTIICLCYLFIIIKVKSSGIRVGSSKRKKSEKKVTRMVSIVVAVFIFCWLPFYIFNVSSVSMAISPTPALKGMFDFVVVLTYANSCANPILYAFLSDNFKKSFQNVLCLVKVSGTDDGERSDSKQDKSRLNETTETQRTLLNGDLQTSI

In general, half-life refers to how long it takes for the measured level to halve. Take insulin-like growth factor-I [IGF-1]: in series [1], the half-life is 10 to 20 min. With `C[C@@H](O)[C@@H]1NC(=O)[C@H](CCCCN)NC(=O)[C@@H](Cc2c[nH]c3ccccc23)NC(=O)[C@H](Cc2ccccc2)NC(=O)[C@@H](NC(=O)[C@H](N)Cc2ccccc2)CSSC[C@@H](C(=O)N[C@H](CO)[C@@H](C)O)NC1=O` [Octreotide], the cytotoxicity at 20 minutes, 0.01 µM in series [2] (Test 2, 10 nM) is 8%; in series [2] (test 1, 10 nM), -4%. As for `C[C@@H]1CC[C@@]2(OC1)O[C@H]1[C@@H](O)[C@H]3[C@@H]4CC[C@H]5C[C@@H](O[C@@H]6O[C@H](CO)[C@H](O[C@@H]7O[C@H](CO)[C@@H](O)[C@H](O[C@@H]8OC[C@@H](O)[C@H](O)[C@H]8O)[C@H]7O[C@@H]7O[C@H](CO)[C@H](O)[C@H](O[C@@H]8O[C@H](CO)[C@@H](O)[C@H](O)[C@H]8O)[C@H]7O)[C@H](O)[C@H]6O)[C@H](O)C[C@]5(C)[C@H]4CC[C@]3(C)[C@H]1[C@@H]2C` [Digitonin], in series [2], the cytotoxicity at 20 min, 20 mg/ml was 100%. `C[C@H](N)C(=O)NCC(=O)N[C@H]1CSSC[C@@H](C(=O)O)NC(=O)[C@H](CO)NC(=O)[C@H]([C@@H](C)O)NC(=O)[C@H](Cc2ccccc2)NC(=O)[C@H]([C@@H](C)O)NC(=O)[C@H](CCCCN)NC(=O)[C@H](Cc2c[nH]c3ccccc23)NC(=O)[C@H](Cc2ccccc2)NC(=O)[C@H](Cc2ccccc2)NC(=O)[C@H](CC(N)=O)NC(=O)[C@H](CCCCN)NC1=O` [free SST, somatostatin]: in series [3] (rat plasma incubation), the “time up to which detected in rat plasma (not detected beyond)” value is no more than 120 min. In addition, the remaining at 40 min in series [3] (rat plasma, 40 minutes of incubation, read-out: fraction detected/remaining in rat plasma) is less than 50%. In series [4], Octreotide (peptide) came in with an EC50 (adenylyl cyclase assay, CHO-K1 cells expressing sst2a receptor) of 0.039 nM.
